Test results: patent US20250049741A1, “COMPOSITION FOR PREVENTING OR TREATING ALZHEIMER'S DISEASE COMPRISING PHOSPHOLIPASE C ACTIVATOR AS AN ACTIVE INGREDIENT” (Korea University Research and Business Foundation, priority 2021, published 2025)

Test system: 5XFAD mice
Test: Contextual fear conditioning (CFC), freezing response
Type: in vivo
Details: m-3M3FBS-injected 5XFAD mice
Text: To test the acute effect of AβO on hippocampal S-eCB mobilization, hippocampal slices from Sprague-Dawley rats (SD, 2 to 3 weeks old, […] Biolink, Co., Ltd., Korea) were used. Male and female rats were used in all in vitro experiments. To test the chronic effect of AβO on hippocampus-dependent memory impairments caused by amyloidosis, the 5XFAD mouse model (6 to 7 months old, #34840-JAX, Jackson Laboratory, USA), which is a mouse model of Alzheimer's disease that mimics AβO depositions, was used. C57BL/6 mice (6 to 7 months old, KOATECH, Korea) were used as wild type (WT) control mice for 5XFAD mice. Male 5XFAD and C57BL/6 mice were used for all in vivo behavioral experiments. […] A ceiling-mounted video camera recorded the behavior activity, and fed the corresponding video into a customized computer software (MATLAB, USA). […] Behavioral mobility data collected during the contextual conditioning experiments were automatically detected using the gray scaling method of EthoVision XT (Noldus, USA). […] Since a body-freezing response (freezing) is considered a conditioned response to CFC during the memory session, the body-freezing response was detected when the threshold was below the 2.0% threshold of mobility. That is, this means that there could be no more than a 2.0% change in the pixels of a detected mouse between the current sample and the previous sample. […]

Cc1cc(C)c(S(=O)(=O)Nc2cccc(C(F)(F)F)c2)c(C)c1 [m-3M3FBS]
freezing responses during memory recall compared to DMSO-injected 5XFAD mice: remarkably increased
